Where a name gives a salt, the structure may show the parent alone.
Legend:
adult housefly [1] = assay: Efficacy against adult housefly, calves subcutaneous pellets (Example 20); assay type: in vivo, Musca domestica; conditions: Musca domestica, sc, test day per line
Procedure: (§1) For the adult housefly test, 10 ml. of serum were employed to saturate a wick which was placed in a petri dish. Twenty-five chilled houseflies were placed in the dish which was then incubated for 24 hours at 27° C. and 50% relative humidity. After the end of the twenty-four hours, the efficacy of the candidate compound was determined as the percent mortality of housefly, adjusted as for blowfly by normal mortality in a control and reported according to the same scale as above.
The compound of Example 2, 2-hydroxy-2-(1,1,2,2-tetrafluoroethyl)-4-nitro-6-(trifluoromethyl)benzimidazoline sodium salt, was formulated neat into tablets, each containing about 85 mg. of compound.
These pellets were implanted in the right shoulder area of two calves, weighing 400 and 373 kilograms respectively, to supply a dose of about 5 mg./kg. (animals #651 and 1511, respectively). Another calf (animal #656) was maintained as a control and two additional calves weighing 336 and 350 kilograms (animals #654 and 655, respectively) received pellets of 2-(1,1,2,2-tetrafluoroethyl)-4-nitro-6-(trifluoromethyl)benzimidazole, to supply a dose of about 5 mg./kg. of compound.
(§2) As described in preceding examples, blood samples were withdrawn and analyzed for the concentration of the compound in the blood and percent efficacy against adult housefly and blowfly larvae.

blowfly larvae [2] = assay: Efficacy against blowfly larvae, calves subcutaneous pellets (Example 20); assay type: in vivo; conditions: Phormia regina, sc, test day per line
Procedure: (§3) Representative compounds of the present invention were evaluated against larvae of blowfly (Phormia regina) and against adult housefly (Musca domestica). In these evaluations, the candidate compound was administered to each of two male guinea pigs weighing from about 400 grams to about 1000 grams. Administration was via the intraperitoneal route, the compound having been formulated in sesame oil. At twenty-four hours following administration of the compound, blood was withdrawn from the guinea pigs. The serum portion was isolated and blowfly larvae and adult houseflies were fed on the serum. For the blowfly assay, 10 ml. of serum were placed in a test tube with a wick onto which 50 blowfly larvae were placed. The covered test tube was incubated at 27° C. for 24 hours, at which time efficacy of the candidate compound was determined as the percent mortality of the blowfly larvae, adjusted by normal mortality in a control, and reported according to the following rating scale:
The compound of Example 2, 2-hydroxy-2-(1,1,2,2-tetrafluoroethyl)-4-nitro-6-(trifluoromethyl)benzimidazoline sodium salt, was formulated neat into tablets, each containing about 85 mg. of compound. […]
as §2

[3] = CRC Handbook of Chemistry and Physics; cited from earlier work
calf = assay: Tolerability in calves (Example 19); assay type: in vivo
Procedure: The compound of Example 3, 2-hydroxy-2,6-bis(trifluoromethyl)-4-nitrobenzimidazoline, sodium salt was evaluated as an ectoparasiticide when administered as pellets implanted in the ear of a calf numbered animal 106. The compound was formulated neat, in tablets about 1/8" thick. A total of 14 pellets was inserted into the left ear of a 215-kilogram calf, to supply a dose of about 5 mg./kg. […] Two other calves received intramuscular injections of aqueous solutions of 2-hydroxy-2,6-bis(trifluoromethyl)-4-nitrobenzimidazoline, sodium salt, to provide 5 or 7.5 mg./kg. of animal body weight. (animals 119 and 121 respectively). […] A control animal was also maintained throughout the test period.

blowfly larvae [4] = assay: Blowfly larvae fed on serum of dosed guinea pigs; assay type: in vivo, Phormia regina; conditions: guinea pig, serum at 24 hours
Procedure: as §3
(§4) Percent mortality was determined separately for each guinea pig.

adult housefly [5] = assay: Adult houseflies fed on serum of dosed guinea pigs; assay type: in vivo, Musca domestica; conditions: guinea pig, serum at 24 hours
Procedure: as §3, §4, §1

guinea pigs = assay: Mortality of guinea pigs after intraperitoneal dosing; assay type: in vivo, guinea pig; conditions: for death of guinea pigs: two animals
Procedure: as §3, with “scale: […]” for “scale:”

[6] = calf 654, pellets about 5 mg./kg.
[7] = calf 655, pellets about 5 mg./kg.

SMILES: O=[N+]([O-])c1cc(C(F)(F)F)cc2nc(C(F)(F)C(F)F)[nH]c12 [2-(1,1,2,2-tetrafluoroethyl)-4-nitro-6-(trifluoromethyl)benzimidazole, reference compound]
- Emax at 5 mg/kg (adult housefly [1]; [6]): 100%
- Emax at 5 mg/kg (adult housefly [1]; [7]): 100%
- Emax at 5 mg/kg (blowfly larvae [2]; [6]): 100%
- Emax at 5 mg/kg (blowfly larvae [2]; [7]): 100%

SMILES: N [Ammonia, ammonia]
- Kb [3]: 1.79×10^-5

SMILES: O=[N+]([O-])c1cc(C(F)(F)F)cc2c1NC(O)(C(F)(F)F)N2 (centres unmarked) [Example 3, 2-Hydroxy-2,6-Bis(Trifluoromethyl)-4-Nitrobenzimidazoline, Sodium Salt, Monohydrate]
- swelling post-insertion (calf; calf 106, 14 ear pellets, about 5 mg./kg., 6 hours and 1 day): Some swelling was noted
- death of calf (calf; calf 121, 7.5 mg./kg. intramuscular): found dead on day 2

SMILES: CC(C)OC1(C(F)(F)C(F)F)Nc2cc(C(F)(F)F)cc([N+](=O)[O-])c2N1 (centres unmarked) [Example 4, 2-Isopropoxy-2-(1,1,2,2-Tetrafluoroethyl)-4-Nitro-6-(Trifluoromethyl)Benzimidazoline, Potassium Salt]
- Efficacy Rating, Blowfly Larvae (blowfly larvae [4]; 5 mg./kg. i.p.): 5 (100% dead)
- Efficacy Rating, Adult Housefly (adult housefly [5]; 5 mg./kg. i.p.): 5 (100% dead)
- death of guinea pigs (guinea pigs; 10 mg./kg. i.p.): Both guinea pigs died

SMILES: O=[N+]([O-])c1cc(C(F)(F)F)cc2c1NC(O)(C(F)(F)C(F)F)N2 (centres unmarked) [Example 6, 2-Hydroxy-2-(1,1,2,2-Tetrafluoroethyl)-4-Nitro-6-(Trifluoromethyl)Benzimidazoline, Calcium Salt]
- Efficacy Rating, Blowfly Larvae (blowfly larvae [4]; 5 mg./kg. i.p.): 5 (100% dead)
- Efficacy Rating, Blowfly Larvae (blowfly larvae [4]; 10 mg./kg. i.p., Calcium Salt): 5 (100% dead)
- Efficacy Rating, Adult Housefly (adult housefly [5]; 5 mg./kg. i.p.): 5 (100% dead)
- Efficacy Rating, Adult Housefly (adult housefly [5]; 10 mg./kg. i.p., Calcium Salt): 5 (100% dead)
- death of guinea pig (guinea pigs; 5 mg./kg. i.p., one of two animals): Guinea pig died

SMILES: O=[N+]([O-])c1cc(C(F)(F)F)cc2c1NC(O)(C(F)(F)C(F)F)N2 (centres unmarked) [Example 7, 2-Hydroxy-2-(1,1,2,2-Tetrafluoroethyl)-4-Nitro-6-(Trifluoromethyl)Benzimidazoline, Silver Salt]
- death of guinea pigs (guinea pigs; 25 mg./kg. i.p.): guinea pigs died
- death of guinea pigs (guinea pigs; 50 mg./kg. i.p.): guinea pigs died

SMILES: O=[N+]([O-])c1cc(C(F)(F)F)cc2c1NC(O)(C(F)(F)C(F)F)N2 (centres unmarked) [Example 8, 2-Hydroxy-2-(1,1,2,2-Tetrafluoroethyl)-4-Nitro-6-(Trifluoromethyl)Benzimidazoline, Lithium Salt]
- Efficacy Rating, Blowfly Larvae (blowfly larvae [4]; 5 mg./kg. i.p.): 5 (100% dead)
- Efficacy Rating, Adult Housefly (adult housefly [5]; 5 mg./kg. i.p.): 5 (100% dead)
- death of guinea pigs (guinea pigs; 20 mg./kg. i.p.): Both guinea pigs died

— US4265901A, “2-Oxybenzimidazoline compounds” (priority 1979, dated 1981)
